Data: patent US20120219536A1, “PURINE-TARGETED DIAGNOSIS AND THERAPY OF WOUNDS” (Queensland University of Technology, priority 2009, published 2012)
Like-named read-outs stand apart in the source and are kept apart here.

Key:
mice = details: cited from earlier work
xanthine oxidase = molecular target: T1, xanthine oxidase (Homo sapiens, UniProt P47989); assay: Xanthine oxidase activity and inhibition in pooled chronic wound fluid (CWF), RP-HPLC; type: biochemical; details: pooled CWF retentate, 10 μmol/L allopurinol, 37° C., 2.5 hr
T1 construct: from tissue; host or cells: pooled chronic wound fluid (CWF), retentate of 3K ultrafiltration
T1 sequence (P47989 whole entry): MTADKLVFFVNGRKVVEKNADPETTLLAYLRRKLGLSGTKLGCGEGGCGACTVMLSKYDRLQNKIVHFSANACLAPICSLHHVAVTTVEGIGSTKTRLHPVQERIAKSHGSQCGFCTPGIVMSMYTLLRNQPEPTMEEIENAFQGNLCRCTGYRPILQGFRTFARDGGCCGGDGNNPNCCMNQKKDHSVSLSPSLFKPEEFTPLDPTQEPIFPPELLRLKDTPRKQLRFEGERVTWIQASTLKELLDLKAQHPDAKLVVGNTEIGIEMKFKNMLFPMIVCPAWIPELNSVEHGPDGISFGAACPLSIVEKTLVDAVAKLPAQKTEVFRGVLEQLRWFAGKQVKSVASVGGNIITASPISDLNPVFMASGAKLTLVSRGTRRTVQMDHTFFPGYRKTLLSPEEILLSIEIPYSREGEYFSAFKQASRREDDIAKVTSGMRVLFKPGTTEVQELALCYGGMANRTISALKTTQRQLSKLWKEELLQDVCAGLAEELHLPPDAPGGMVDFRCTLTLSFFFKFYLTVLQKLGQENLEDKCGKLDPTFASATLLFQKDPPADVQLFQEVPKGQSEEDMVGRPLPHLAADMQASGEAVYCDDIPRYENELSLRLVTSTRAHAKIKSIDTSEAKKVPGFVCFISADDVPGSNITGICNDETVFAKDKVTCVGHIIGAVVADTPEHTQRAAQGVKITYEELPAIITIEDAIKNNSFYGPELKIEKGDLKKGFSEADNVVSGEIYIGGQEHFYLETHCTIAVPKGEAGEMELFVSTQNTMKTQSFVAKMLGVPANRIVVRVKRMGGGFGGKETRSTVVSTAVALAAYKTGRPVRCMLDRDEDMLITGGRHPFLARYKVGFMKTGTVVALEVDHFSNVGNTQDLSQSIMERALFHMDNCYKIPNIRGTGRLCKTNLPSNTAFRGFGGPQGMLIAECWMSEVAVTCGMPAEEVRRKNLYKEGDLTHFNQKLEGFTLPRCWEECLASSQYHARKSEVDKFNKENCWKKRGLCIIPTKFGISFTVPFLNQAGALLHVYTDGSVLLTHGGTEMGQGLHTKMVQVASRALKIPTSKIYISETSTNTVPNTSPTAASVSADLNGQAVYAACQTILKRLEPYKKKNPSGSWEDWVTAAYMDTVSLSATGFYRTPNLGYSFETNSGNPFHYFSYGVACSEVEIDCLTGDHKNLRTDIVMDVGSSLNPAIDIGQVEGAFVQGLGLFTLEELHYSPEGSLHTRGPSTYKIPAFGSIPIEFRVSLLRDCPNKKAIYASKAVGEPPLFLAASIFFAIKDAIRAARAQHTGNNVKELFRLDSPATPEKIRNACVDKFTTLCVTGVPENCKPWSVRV
Description: Additionally, samples were treated with allopurinol, a specific XO inhibitor, and the production of the metabolite oxypurinol determined at A254. Firstly, CWF was concentrated by centrifugation using nanosep 3K omega filters (PALL) at 10,000 g for 10 min at 4° C. The retentate was resuspended with 10 mM Tris-HCl buffer, pH 8.0 containing either 10 μmol/L of xanthine or allopurinol, then incubated at 37° C. for 2.5 hr in the ultrafiltration unit. After incubation, the reaction mixture was de-proteinised as per the manufacturer's instructions and the resulting filtrates analysed using reverse phase HPLC as previously outlined.
In further support of this finding, XO enzyme inhibition was assayed using a potent XO inhibitor, allopurinol. Allopurinol is rapidly metabolised by XO to generate the active metabolite, oxypurinol, which itself is an inhibitor of XO. […] Western blotting confirmed the presence of the enzyme in wound fluid (data not shown).

For “1,4-dihydropyrazolo[4,3-d]pyrimidin-7-one [Allopurinol]”, the “50% lethal dose (LD50)” value (mice; given intraperitoneally) is given as 160 mg/kg, the “50% lethal dose (LD50)” value (mice; given orally) is given as 700 mg/kg and the “production of the metabolite oxypurinol by XO” value (xanthine oxidase; HPLC at A254) is given as “a peak consistent with the retention time of oxypurinol standard was detected”. For the same substance, the “XO enzyme inhibition: production of uric acid” value (xanthine oxidase; HPLC at A280) was “did not reveal a peak corresponding to uric acid”.
